System: MMP1 (collagénase interstitielle humaine)
Assay: Amount of MMP-1 produced by PMA-stimulated fibroblasts (ELISA)
Type: cell-based, humains
Conditions: for inhibition at 0.04 %: ganoderic acids 0.04 %, versus témoin + PMA, read-out: diminution de la quantité MMP1; for activity at 0.04 %: read-out: % témoin +PMA; for MMP1 (ng/ml): 4 h pre-incubation, +PMA 0.1 µg/ml
Description: Les essais figurant au tableau 2 ci-après concernent la régulation d'une enzyme, la MMP1 (collagénase interstitielle humaine) appartenant aux métalloprotéinases, de la famille des protéases, enzymes dégradant la matrice extra-cellulaire, la MMP1 dégradant particulièrement le collagène natif.
Les essais, dont les résultats figurent au tableau 2, ont donc consisté à comparer l'activité de la DHEA et des acides ganodériques B, C2 et G sur la régulation de l'activité de la MMP1 après stimulation des fibroblastes par PMA.
• Fibroblastes humains normaux profonds (type R2Ad2), utilisé au 2e passage. • Culture: 37° C, 5 % CO2 • Milieu de croissance : milieu Tebu PM-1 • Milieu d'essai : DMEM/HAMF10, vol/vol (Invitrogen 21969035 / Invitrogen 31550-023) • Hepes 15 mM (Invitrogen 1563-056) • L-glutamine 2 mM (Invitrogen 25030024) • pénicilline 50 UI/ml streptomycine 50 µg/ml (Invitrogen 15070063) • sans sérum de veau foetal
• solution stock : 10 % dans l'éthanol puis dilution à 0.1 % dans une solution de BSA délipidée à 5 mg/ml final • dilutions : en milieu de culture stérile • concentration finale testée: 0.001 % (50 µg/ml BSA 1^e conc, final) Acide Ganodérique B • solution stock : 10 % en DMSO • dilutions : en milieu de culture stérile • concentration finale testée: 0.04 % (50 µg/ml BSA final) Acide Ganodérique C2 • solution stock : 10 % en DMSO • dilutions : en milieu de culture stérile • concentration finale testée: 0.04 % (50 µg/ml BSA final) Acide Ganodérique G • solution stock : 10 % en DMSO • dilutions : en milieu de culture stérile • concentration finale testée: 0.04 % (50 µg/ml BSA final)
Les cellules ont été ensemensées à 17000 cellules par puits, en plaques 96 puits, une plaque pour chaque temps de culture. Toutes les conditions en triplicata (3 puits de culture). Les cellules ont été pré-cultivées pendant 24 h en milieu sans SVF. Après 24 h de pré-culture, les milieux ont été remplacés par un milieu équivalent contenant) les produits à l'essai ou non (contrôles) ou la DHEA à 0.001 %. Après 4 h d'incubation, une solution 10 fois concentrée de « phorbol myristate acétate » (PMA, Sigma, 0.1 µg/ml final) a été ajoutée ou non (contrôles) et les cellules ont été cultivées pendant 6 h supplémentaires.
A la fin de chaque temps de culture, les milieux de culture ont été récupérés et congelés à -80 °C pour dosage de la quantité de MMP-1 et la viabilité des tapis cellulaires a été contrôlée en utilisant un test standard de réduction du MTT.
Le dosage de MMP-1 (collagénase interstitielle humaine) a été réalisé par ELISA, à l'aide d'un kit « BIOTRACK human MMP-1, ELISA system, Amersham RPN2610 », selon les directives du fournisseur.
Résumé des conditions testées : • Modèle : fibroblastes humains • Test : dosage quantité de MMP-1 produite (protéine, ELISA) • Milieux : sans sérum • Tests : produits à l'essai, DHEA 0.001 % ou contrôles non traités, pendant 4 h • Stimulation : ajout de PMA (ou non, contrôles) et culture pendant 6 h. Produits (selon viabilités sur fibroblastes): • A.G. B 0:04 %; • A.G. C2 0.04 %; • A.G. G 0.04 %; • DHEA 10 µg/ml
Les données brutes de comptage ont été transférées et traitées sous le logiciel PRISM® (Graph Pad Software).
Les comparaisons inter-groupes ont été réalisées par analyse de variance (ANOVA) à l'aide du test de comparaison multiple de Dunnett.

[1] = Fibroblast, ganoderic acid 0,04%, normal human fibroblasts, +PMA, 6h
[2] = ganoderic acid 0,04%, normal human fibroblasts, 6h, Témoin + PMA 17,89

CC(CC(=O)CC(C)C1CC(=O)C2(C)C3=C(C(=O)CC12C)C1(C)CCC(O)C(C)(C)C1CC3O)C(=O)O (stereo not shown) [A. ganodérique B, Acide Ganodérique B]
inhibition at 0.04 % (Fibroblast, 6 h): ~30% | activity at 0.04 % [1]: 76% | MMP1 (ng/ml) [2]: 13,52 ng/ml

CC(CC(=O)CC(C)C1CC(O)C2(C)C3=C(C(=O)CC12C)C1(C)CCC(O)C(C)(C)C1CC3O)C(=O)O (stereo not shown) [A. ganodérique C2, Acide Ganodérique C2]
inhibition at 0.04 % (Fibroblast, 6 h): ~30% | activity at 0.04 % [1]: 72% | MMP1 (ng/ml) [2]: 12,95 ng/ml

CC(CC(=O)CC(C)C1CC(=O)C2(C)C3=C(C(=O)C(O)C12C)C1(C)CCC(O)C(C)(C)C1CC3O)C(=O)O (stereo not shown) [A. ganodérique G, Acide Ganodérique G]
inhibition at 0.04 % (Fibroblast, 6 h): > 40% | activity at 0.04 % [1]: 57% | MMP1 (ng/ml) [2]: 10,15 ng/ml | effets anti-vieillissement (régulation MMP1) (result in words, comparison between ganoderic acids B, C2 and G at 0.04 %): activité supérieure aux deux autres acides ganodériques

C[C@]12CC[C@H](O)CC1=CC[C@@H]1[C@@H]2CC[C@]2(C)C(=O)CC[C@@H]12 [DHEA, DéHydroEpiAndrostérone, reference compound]
MMP1 (ng/ml) (DHEA 0,001%, normal human fibroblasts, 6h, Témoin + PMA 10,54): 6,38 ng/ml | % témoin +PMA (DHEA 0,001%, normal human fibroblasts, +PMA, 6h, 360 min): 61% | activity at 0.001 % (Fibroblast, 6 h, read-out: % témoin +PMA, DHEA 0,001%, normal human fibroblasts, +PMA, 6h): 60%

From patent EP1434565B1, “USE OF GANODERIC ACIDS AS COSMETIC AGENTS” (YVES SAINT LAURENT PARFUMS, (Société Anonyme), priority 2001, dated 2003)
